Assay results: BindingDB's records for doi:10.1016/j.bioorg.2013.09.002 (Ewha Womans University, 2013)
pIC50: −log10 of the molar value. Where a SMILES comes first, the peptide text is derived from it. The star is where a group is joined. Cbz = O=C(OCc1ccccc1)*; CH2F = FC*

Columns and labels:
[1] = target: T1, Calpain-1 catalytic subunit (Homo sapiens, UniProt P07384); experiment: µ-Calpain Inhibition Assay; conditions: pH 7.5; 25 °C
T1 sequence (P07384 whole entry): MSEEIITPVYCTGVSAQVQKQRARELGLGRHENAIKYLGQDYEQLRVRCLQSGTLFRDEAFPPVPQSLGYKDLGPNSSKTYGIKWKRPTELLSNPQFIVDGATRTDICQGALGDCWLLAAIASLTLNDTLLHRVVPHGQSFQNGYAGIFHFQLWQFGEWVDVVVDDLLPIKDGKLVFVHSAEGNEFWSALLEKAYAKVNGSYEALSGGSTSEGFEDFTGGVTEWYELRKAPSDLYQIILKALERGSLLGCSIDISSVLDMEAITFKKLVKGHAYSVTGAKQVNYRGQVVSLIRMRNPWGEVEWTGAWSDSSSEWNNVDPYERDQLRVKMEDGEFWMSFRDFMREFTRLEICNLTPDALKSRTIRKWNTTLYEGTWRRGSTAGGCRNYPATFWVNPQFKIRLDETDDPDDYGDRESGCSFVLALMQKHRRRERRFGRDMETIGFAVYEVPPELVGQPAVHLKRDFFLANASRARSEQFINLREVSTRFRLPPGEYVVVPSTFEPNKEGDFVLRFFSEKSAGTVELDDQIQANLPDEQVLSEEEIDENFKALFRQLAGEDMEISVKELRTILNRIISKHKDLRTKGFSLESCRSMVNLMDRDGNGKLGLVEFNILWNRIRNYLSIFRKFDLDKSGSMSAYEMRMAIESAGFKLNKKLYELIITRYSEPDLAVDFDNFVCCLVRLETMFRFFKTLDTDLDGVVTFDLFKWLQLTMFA
Method: The reaction was initiated by sequential addition of substrate A, µ-calpain, each compound, and finally a CaCl2 solution. The reaction mixture (100 µL) was incubated at room temperature for 30 min with shaking. Fluorescence intensities were measured at 320 nm excitation and 420 nm emission wavelengths.

[2] = target: T2, Calpain-2 catalytic subunit (Homo sapiens, UniProt P17655); experiment: m-Calpain Inhibition Assay; conditions: pH 7.5; 25 °C
T2 sequence (P17655 whole entry): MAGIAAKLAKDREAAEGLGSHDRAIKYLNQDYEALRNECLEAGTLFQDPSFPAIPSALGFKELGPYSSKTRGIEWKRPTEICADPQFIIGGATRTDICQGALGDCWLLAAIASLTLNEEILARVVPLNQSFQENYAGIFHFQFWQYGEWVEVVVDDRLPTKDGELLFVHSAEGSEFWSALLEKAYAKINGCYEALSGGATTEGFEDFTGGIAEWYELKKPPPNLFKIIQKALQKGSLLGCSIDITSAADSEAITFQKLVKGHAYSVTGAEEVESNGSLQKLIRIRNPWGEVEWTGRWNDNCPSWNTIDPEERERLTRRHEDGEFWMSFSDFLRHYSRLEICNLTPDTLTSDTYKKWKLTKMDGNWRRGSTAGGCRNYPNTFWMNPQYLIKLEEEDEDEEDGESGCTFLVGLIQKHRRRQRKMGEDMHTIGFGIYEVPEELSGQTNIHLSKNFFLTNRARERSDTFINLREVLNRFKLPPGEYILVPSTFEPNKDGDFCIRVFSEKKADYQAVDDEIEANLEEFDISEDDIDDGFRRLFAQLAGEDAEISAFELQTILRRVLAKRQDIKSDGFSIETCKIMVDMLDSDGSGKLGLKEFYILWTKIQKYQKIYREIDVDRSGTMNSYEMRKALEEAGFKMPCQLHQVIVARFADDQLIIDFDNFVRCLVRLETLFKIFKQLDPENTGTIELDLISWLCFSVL
Method: Inhibition of m-calpain was assayed in the reaction buffer (50 mM Tris-HCl, 100 mM NaCl, 5 mM β-mercaptoethanol, and 1 mM EDTA, pH 7.5) with 50 µM substrate B, 5 mM CaCl2 and 2.88 U/mL m-calpain. The reaction was initiated by sequential addition of substrate B, m-calpain, each compound, and finally a CaCl2 solution. The reaction mixture (100 µL) was incubated at room temperature for 30 min with shaking. Fluorescence intensities were measured at 320 nm excitation and 420 nm emission wavelengths. MDL28170 was used as a positive control for µ- and m-calpain inhibition.

Procathepsin L = Procathepsin L (Homo sapiens, UniProt P07711); experiment: Cathepsin L Inhibition Assay; conditions: pH 5.5; 37 °C
Chain of Procathepsin L (P07711 whole entry): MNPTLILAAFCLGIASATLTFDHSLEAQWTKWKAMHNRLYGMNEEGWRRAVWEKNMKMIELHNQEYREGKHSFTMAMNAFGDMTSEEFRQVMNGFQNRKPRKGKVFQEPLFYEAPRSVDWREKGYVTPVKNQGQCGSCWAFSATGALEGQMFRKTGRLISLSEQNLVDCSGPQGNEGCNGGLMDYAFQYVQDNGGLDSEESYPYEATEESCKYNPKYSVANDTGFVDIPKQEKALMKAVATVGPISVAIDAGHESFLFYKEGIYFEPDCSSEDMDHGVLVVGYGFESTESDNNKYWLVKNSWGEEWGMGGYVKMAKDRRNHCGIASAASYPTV
Method: Inhibition of cathepsin L was assayed in reaction buffer (0.1M NaOAc-HCl, 1 mM EDTA, 0.1% β-mercaptoethanol, pH 5.5) containing 20 µM substrate and 4 nM cathepsin L. Z-FR-AMC was used as a substrate for […]. Cathepsin L was activated by incubation in assay buffer at 37 °C for 30 min prior to initiation of the reaction by addition of the substrate and test compound. The reaction mixture was then incubated at room temperature for 30 min with shaking. Fluorescence intensities were measured at 360 nm excitation and 450 nm emission wavelengths.

SMILES | pIC50 [1] | pIC50 [2] | pIC50 (Procathepsin L)
O=C(/C=C/c1ccccn1)c1ccc(O)cc1O [1-(2,4-Dihydroxyphenyl)-3-(pyridin-2-yl)propenone (8)] | < 4.00 | < 4.00 | < 4.00
O=C(/C=C/c1cccnc1)c1ccc(O)cc1O [1-(2,4-Dihydroxyphenyl)-3-(pyridin-3-yl)propenone (7)] | < 4.00 | < 4.00 | < 4.00
O=C(/C=C/c1ccncc1)c1ccc(O)cc1O [1-(2,4-Dihydroxyphenyl)-3-(pyridin-4-yl)propenone (6)] | < 4.00 | < 4.00 | 4.35
O=C(/C=C/c1ccco1)c1cc(O)cc(O)c1 [1-(3,5-Dihydroxyphenyl)-3-(furan-2-yl)propenone (21)] | < 4.00 | < 4.00 | < 4.00
O=C(/C=C/c1ccoc1)c1cc(O)cc(O)c1 [1-(3,5-Dihydroxyphenyl)-3-(furan-3-yl)propenone (24)] | < 4.00 | < 4.00 | < 4.00
O=C(/C=C/c1cccs1)c1cc(O)cc(O)c1 [1-(3,5-Dihydroxyphenyl)-3-(thiophen-2-yl)propenone (20)] | < 4.00 | < 4.00 | < 4.00
O=C(/C=C/c1ccsc1)c1cc(O)cc(O)c1 [1-(3,5-Dihydroxyphenyl)-3-(thiophen-3-yl)propenone (23)] | < 4.00 | 4.01 | < 4.00
O=C(/C=C/c1ccccc1)c1cc(O)cc(O)c1 [1-(3,5-Dihydroxyphenyl)-3-phenylpropenone (22)] | < 4.00 | < 4.00 | < 4.00
O=C(/C=C/c1ccc(O)cc1O)c1ccco1 [3-(2,4-Dihydroxyphenyl)-1-(furan-2-yl)propenone (14)] | < 4.00 | < 4.00 | 5.54
CCCNC(=O)[C@H]1O[C@@H]1C(=O)N[C@H](C(=O)N1CCC[C@H]1C(=O)O)[C@@H](C)CC [CA074] | < 4.00 | < 4.00 | 

The next compounds have a higher pIC50 [2] than those just listed; values first:

pIC50 [1] | pIC50 [2] | pIC50 (Procathepsin L) | SMILES
4.06 | 4.60 | 4.04 | O=C(/C=C/c1ccco1)c1ccc(O)cc1O [1-(2,4-Dihydroxyphenyl)-3-(furan-2-yl)propenone (10)]
4.25 | 4.40 | 4.28 | O=C(/C=C/c1cccs1)c1ccc(O)cc1O [1-(2,4-Dihydroxyphenyl)-3-(thiophen-2-yl)propenone (9)]
< 4.00 | 4.22 | 5.55 | O=C(/C=C/c1ccc(O)cc1O)c1cccs1 [3-(2,4-Dihydroxyphenyl)-1-(thiophen-2-yl)propenone (13)]
6.40 | 6.38 |  | O=C(NC(Cc1ccccc1)C(=O)NC(Cc1ccccc1)C(=O)CF)OCc1ccccc1 (stereo not drawn) [benzyl N-[1-[(4-fluoro-3-oxo-1-phenylbutan-2-yl)amino]-1-oxo-3-phenylpropan-2-yl]carbamate] (Cbz-Phe-Phe-CH2F; configuration not given here)
 | 6.82 |  | CC(C)C(NC(=O)OCc1ccccc1)C(=O)NC(C=O)Cc1ccccc1 [benzyl N-[(1S)-2-methyl-1-[(1-oxo-3-phenylpropan-2-yl)carbamoyl]propyl]carbamate] (Cbz-Val-Phe-aldehyde; configuration not given here)
